The values below come from ChEMBL document CHEMBL1909046, “DrugMatrix in vitro pharmacology data”.

Sequence of Cytochrome P450 2C19 (P33261 whole entry): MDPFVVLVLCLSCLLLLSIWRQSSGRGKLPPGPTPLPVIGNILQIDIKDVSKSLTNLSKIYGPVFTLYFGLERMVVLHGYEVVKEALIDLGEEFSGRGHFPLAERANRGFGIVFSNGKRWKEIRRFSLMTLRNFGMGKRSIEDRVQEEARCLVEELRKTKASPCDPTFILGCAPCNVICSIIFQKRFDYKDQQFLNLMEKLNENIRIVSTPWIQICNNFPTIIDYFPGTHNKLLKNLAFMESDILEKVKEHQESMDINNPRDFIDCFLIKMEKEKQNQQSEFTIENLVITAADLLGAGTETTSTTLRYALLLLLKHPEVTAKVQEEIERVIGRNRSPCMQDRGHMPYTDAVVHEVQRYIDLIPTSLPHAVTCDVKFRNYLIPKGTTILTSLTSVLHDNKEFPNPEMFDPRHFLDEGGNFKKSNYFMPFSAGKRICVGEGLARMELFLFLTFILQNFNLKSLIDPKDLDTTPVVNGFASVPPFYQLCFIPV

Tested on in the first series: not listed separately
The experiment in a line: DRUGMATRIX: Calcium Channel Type L, Dihydropyridine radioligand binding (ligand: [3H] Nitrendipine). Particulars: Not Active = under 50% inhibition at 10 µM. It is filed as cell membranes, Rattus norvegicus, Wistar, Cerebral cortex, Membrane.
As to `C[C@]12C/C(=C/O)C(=O)C[C@@H]1CC[C@@H]1[C@@H]2CC[C@@]2(C)[C@H]1CC[C@]2(C)O` [OXYMETHOLONE], the IC50 entry is recorded as “Not Active” and the Ki entry is on record as “Not Active”.
Consider `CC(C)(CO)C(O)C(=O)NCCCO` (configuration not stated) [PANTHENOL], for which the IC50 entry was “Not Active” and the Ki result is reported as “Not Active”.
Consider `CCCCC1C(=O)N(c2ccccc2)N(c2ccccc2)C1=O` [PHENYLBUTAZONE], for which the IC50 result is reported as “Not Active” and the Ki entry was “Not Active”.
As to `Cc1cccc(Nc2cc(Cl)nc(SCC(=O)O)n2)c1C` [PIRINIXIC ACID], the IC50 result is on record as “Not Active” and the Ki entry was “Not Active”.
As to `CC[C@H](C)C(=O)O[C@H]1C[C@H](O)C=C2C=C[C@H](C)[C@H](CC[C@@H](O)C[C@@H](O)CC(=O)O)[C@H]21` [PRAVASTATIN], the IC50 result was “Not Active” and the Ki entry is reported as “Not Active”.
For the compound COBALT(II) ACETYLACETONATE, the IC50 entry was “Not Active” and the Ki entry is reported as “Not Active”.
Regarding INSULIN HUMAN, the IC50 entry is recorded as “Not Active” and the Ki result was “Not Active”.
Turning to POLYVINYL ALCOHOL, the IC50 entry is “Not Active” and the Ki result is on record as “Not Active”.

Tested on in a further series: not listed separately
The experiment in a line: DRUGMATRIX: Serotonin (5-Hydroxytryptamine) 5-HT3 radioligand binding (ligand: [3H] GR-65630). It is filed as cell membranes, Membrane. Particulars: hek293; Not Active = under 50% inhibition at 10 µM.
As for `C[C@]12C/C(=C/O)C(=O)C[C@@H]1CC[C@@H]1[C@@H]2CC[C@@]2(C)[C@H]1CC[C@]2(C)O` [OXYMETHOLONE], the IC50 result is listed as “Not Active” and the Ki result is recorded as “Not Active”.
As for `CC(C)(CO)C(O)C(=O)NCCCO` (configuration not stated) [PANTHENOL], the IC50 entry is “Not Active” and the Ki result is reported as “Not Active”.
`CCCCC1C(=O)N(c2ccccc2)N(c2ccccc2)C1=O` [PHENYLBUTAZONE]: the IC50 entry is “Not Active” and the Ki entry is reported as “Not Active”.
As to `Cc1cccc(Nc2cc(Cl)nc(SCC(=O)O)n2)c1C` [PIRINIXIC ACID], the IC50 entry is “Not Active” and the Ki entry was “Not Active”.
`CC[C@H](C)C(=O)O[C@H]1C[C@H](O)C=C2C=C[C@H](C)[C@H](CC[C@@H](O)C[C@@H](O)CC(=O)O)[C@H]21` [PRAVASTATIN]: the IC50 entry is given as “Not Active” and the Ki entry is recorded as “Not Active”.
Consider COBALT(II) ACETYLACETONATE, for which the IC50 result is recorded as “Not Active” and the Ki entry was “Not Active”.
With INSULIN HUMAN, the IC50 result is “Not Active” and the Ki result is reported as “Not Active”.
As to POLYVINYL ALCOHOL, the IC50 result is given as “Not Active” and the Ki entry is given as “Not Active”.

Another series concerns the target T1, Substance-K receptor (Homo sapiens, UniProt P21452). Further: in other assays of this panel Not Active means under 50% inhibition at 10 µM.
T1 sequence (P21452 whole entry): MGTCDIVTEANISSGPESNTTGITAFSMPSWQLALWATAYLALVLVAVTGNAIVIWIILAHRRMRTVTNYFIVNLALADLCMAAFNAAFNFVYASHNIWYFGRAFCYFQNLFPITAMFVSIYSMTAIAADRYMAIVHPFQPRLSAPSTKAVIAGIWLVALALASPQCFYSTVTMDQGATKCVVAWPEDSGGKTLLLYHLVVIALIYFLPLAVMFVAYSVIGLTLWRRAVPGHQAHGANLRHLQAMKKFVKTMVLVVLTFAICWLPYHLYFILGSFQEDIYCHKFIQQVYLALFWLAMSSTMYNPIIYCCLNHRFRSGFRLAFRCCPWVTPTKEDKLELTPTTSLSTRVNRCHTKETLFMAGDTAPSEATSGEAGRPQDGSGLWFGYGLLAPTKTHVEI
It is filed as cell membranes, CHO, Membrane. Particulars: cho.
For the compound `C[C@]12C/C(=C/O)C(=O)C[C@@H]1CC[C@@H]1[C@@H]2CC[C@@]2(C)[C@H]1CC[C@]2(C)O` [OXYMETHOLONE], the IC50 entry is listed as “Not Active”.
Turning to `CC(C)(CO)C(O)C(=O)NCCCO` (configuration not stated) [PANTHENOL], the IC50 entry was “Not Active”.
The same measure, in the same setting: in the case of `CCCCC1C(=O)N(c2ccccc2)N(c2ccccc2)C1=O` [PHENYLBUTAZONE] it was “Not Active”; in that of `Cc1cccc(Nc2cc(Cl)nc(SCC(=O)O)n2)c1C` [PIRINIXIC ACID], “Not Active”; in that of `CC[C@H](C)C(=O)O[C@H]1C[C@H](O)C=C2C=C[C@H](C)[C@H](CC[C@@H](O)C[C@@H](O)CC(=O)O)[C@H]21` [PRAVASTATIN], “Not Active”.
Turning to COBALT(II) ACETYLACETONATE, the IC50 result is listed as “Not Active” and the Ki entry is given as “Not Active”.
INSULIN HUMAN: the IC50 result is given as “Not Active” and the Ki entry is on record as “Not Active”.
For the compound POLYVINYL ALCOHOL, the IC50 result is “Not Active” and the Ki entry is “Not Active”.

In another series the target is Nitric oxide synthase 1 (Rattus norvegicus, UniProt P29476). It counts as tissue-based, Cerebellum. Further: in other assays of this panel Not Active means under 50% inhibition at 10 µM.
Sequence of Nitric oxide synthase 1 (P29476 whole entry): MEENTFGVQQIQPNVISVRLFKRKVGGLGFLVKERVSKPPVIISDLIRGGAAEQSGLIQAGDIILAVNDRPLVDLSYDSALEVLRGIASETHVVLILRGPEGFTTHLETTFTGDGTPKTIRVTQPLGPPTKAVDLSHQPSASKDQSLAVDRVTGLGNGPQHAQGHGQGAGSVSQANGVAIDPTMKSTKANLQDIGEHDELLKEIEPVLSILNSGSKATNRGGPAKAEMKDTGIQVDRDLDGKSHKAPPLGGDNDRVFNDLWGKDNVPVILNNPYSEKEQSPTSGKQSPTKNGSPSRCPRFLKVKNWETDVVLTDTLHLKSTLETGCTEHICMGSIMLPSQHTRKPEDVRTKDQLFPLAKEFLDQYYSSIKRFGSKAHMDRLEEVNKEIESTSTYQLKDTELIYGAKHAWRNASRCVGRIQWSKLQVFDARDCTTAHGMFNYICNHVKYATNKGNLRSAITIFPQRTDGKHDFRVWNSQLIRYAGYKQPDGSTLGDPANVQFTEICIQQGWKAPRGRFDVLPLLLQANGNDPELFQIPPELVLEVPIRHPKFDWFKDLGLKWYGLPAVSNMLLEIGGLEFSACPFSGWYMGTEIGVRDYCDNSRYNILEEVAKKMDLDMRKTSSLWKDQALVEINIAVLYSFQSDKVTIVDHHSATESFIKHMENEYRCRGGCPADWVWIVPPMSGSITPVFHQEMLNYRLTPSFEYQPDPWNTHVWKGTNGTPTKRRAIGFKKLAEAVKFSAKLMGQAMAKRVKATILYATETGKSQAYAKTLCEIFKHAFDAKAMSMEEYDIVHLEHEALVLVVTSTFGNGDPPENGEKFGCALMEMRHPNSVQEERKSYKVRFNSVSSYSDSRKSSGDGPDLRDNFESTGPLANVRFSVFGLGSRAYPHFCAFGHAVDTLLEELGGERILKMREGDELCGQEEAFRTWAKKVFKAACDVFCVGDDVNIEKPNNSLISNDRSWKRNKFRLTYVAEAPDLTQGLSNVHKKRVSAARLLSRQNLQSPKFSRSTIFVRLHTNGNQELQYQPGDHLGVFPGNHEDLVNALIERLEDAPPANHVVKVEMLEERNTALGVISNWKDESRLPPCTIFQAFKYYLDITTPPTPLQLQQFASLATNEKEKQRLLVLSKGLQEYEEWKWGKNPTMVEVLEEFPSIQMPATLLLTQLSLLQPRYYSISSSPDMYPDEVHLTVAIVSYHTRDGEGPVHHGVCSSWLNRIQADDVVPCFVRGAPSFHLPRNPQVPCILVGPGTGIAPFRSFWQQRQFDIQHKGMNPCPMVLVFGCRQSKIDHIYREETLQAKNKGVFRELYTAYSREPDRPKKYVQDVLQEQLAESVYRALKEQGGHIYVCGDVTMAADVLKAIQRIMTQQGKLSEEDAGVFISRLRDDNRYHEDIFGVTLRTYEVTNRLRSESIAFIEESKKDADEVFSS
Conditions: not given
As to `C[C@]12C/C(=C/O)C(=O)C[C@@H]1CC[C@@H]1[C@@H]2CC[C@@]2(C)[C@H]1CC[C@]2(C)O` [OXYMETHOLONE], the IC50 entry was “Not Active”.
Regarding `CC(C)(CO)C(O)C(=O)NCCCO` (configuration not stated) [PANTHENOL], the IC50 entry is reported as “Not Active”.
Consider `CCCCC1C(=O)N(c2ccccc2)N(c2ccccc2)C1=O` [PHENYLBUTAZONE], for which the IC50 result is “Not Active”.
As to `Cc1cccc(Nc2cc(Cl)nc(SCC(=O)O)n2)c1C` [PIRINIXIC ACID], the IC50 entry is on record as “Not Active”.
Still for that read-out and setting: in the case of `CC[C@H](C)C(=O)O[C@H]1C[C@H](O)C=C2C=C[C@H](C)[C@H](CC[C@@H](O)C[C@@H](O)CC(=O)O)[C@H]21` [PRAVASTATIN] it was “Not Active”.
Regarding COBALT(II) ACETYLACETONATE, the IC50 entry is “Not Active” and the Ki result is on record as “Not Active”.
Take INSULIN HUMAN: the IC50 result is “Not Active” and the Ki result is reported as “Not Active”.
On to POLYVINYL ALCOHOL, for which the IC50 entry was “Not Active” and the Ki entry is “Not Active”.

For another series, the target named is Mitogen-activated protein kinase 3 (Homo sapiens, UniProt P27361). The experiment in a line: DRUGMATRIX: Protein Serine/Threonine Kinase, ERK1 enzyme inhibition (substrate: Myelin Basic Protein). Also on record: species or system Escherichia coli. Conditions: Not Active = under 50% inhibition at 10 µM.
Sequence of Mitogen-activated protein kinase 3 (P27361 whole entry): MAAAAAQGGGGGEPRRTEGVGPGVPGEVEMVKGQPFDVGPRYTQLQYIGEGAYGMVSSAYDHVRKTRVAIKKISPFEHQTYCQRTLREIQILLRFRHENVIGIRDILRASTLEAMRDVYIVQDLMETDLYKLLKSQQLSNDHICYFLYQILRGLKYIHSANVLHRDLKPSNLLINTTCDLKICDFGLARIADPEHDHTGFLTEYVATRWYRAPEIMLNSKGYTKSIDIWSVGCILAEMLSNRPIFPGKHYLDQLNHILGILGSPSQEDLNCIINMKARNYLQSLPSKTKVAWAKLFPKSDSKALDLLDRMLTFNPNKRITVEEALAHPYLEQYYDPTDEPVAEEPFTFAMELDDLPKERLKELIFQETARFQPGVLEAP
As for `C[C@]12C/C(=C/O)C(=O)C[C@@H]1CC[C@@H]1[C@@H]2CC[C@@]2(C)[C@H]1CC[C@]2(C)O` [OXYMETHOLONE], the IC50 entry is given as “Not Active”.
On the same count and under the same terms, as for `CC(C)(CO)C(O)C(=O)NCCCO` (configuration not stated) [PANTHENOL], the entry is “Not Active”; as for `CCCCC1C(=O)N(c2ccccc2)N(c2ccccc2)C1=O` [PHENYLBUTAZONE], “Not Active”; as for `Cc1cccc(Nc2cc(Cl)nc(SCC(=O)O)n2)c1C` [PIRINIXIC ACID], “Not Active”.
In the case of `CC[C@H](C)C(=O)O[C@H]1C[C@H](O)C=C2C=C[C@H](C)[C@H](CC[C@@H](O)C[C@@H](O)CC(=O)O)[C@H]21` [PRAVASTATIN], the IC50 entry is given as “Not Active”.
Take COBALT(II) ACETYLACETONATE: the IC50 result is “Not Active” and the Ki entry was “Not Active”.
For INSULIN HUMAN, the IC50 entry is reported as “Not Active” and the Ki entry was “Not Active”.
Take POLYVINYL ALCOHOL: the IC50 result is on record as “Not Active” and the Ki result was “Not Active”.

A further series concerns the target Cytochrome P450 2C19 (Homo sapiens, UniProt P33261). Conditions: bti-tn-5b1-4. Further: in other assays of this panel Not Active means under 50% inhibition at 10 µM.
As for `C[C@]12C/C(=C/O)C(=O)C[C@@H]1CC[C@@H]1[C@@H]2CC[C@@]2(C)[C@H]1CC[C@]2(C)O` [OXYMETHOLONE], the IC50 entry is listed as “Not Active” and the Ki result is “Not Active”.
Consider `CC(C)(CO)C(O)C(=O)NCCCO` (configuration not stated) [PANTHENOL], for which the IC50 entry is reported as “Not Active” and the Ki result was “Not Active”.
For the compound `CCCCC1C(=O)N(c2ccccc2)N(c2ccccc2)C1=O` [PHENYLBUTAZONE], the IC50 result is reported as “Not Active” and the Ki result was “Not Active”.
Turning to `Cc1cccc(Nc2cc(Cl)nc(SCC(=O)O)n2)c1C` [PIRINIXIC ACID], the IC50 result is on record as “Not Active” and the Ki entry is “Not Active”.
Regarding `CC[C@H](C)C(=O)O[C@H]1C[C@H](O)C=C2C=C[C@H](C)[C@H](CC[C@@H](O)C[C@@H](O)CC(=O)O)[C@H]21` [PRAVASTATIN], the IC50 result was “Not Active” and the Ki entry is listed as “Not Active”.
In the case of COBALT(II) ACETYLACETONATE, the IC50 result is on record as “Not Active” and the Ki entry was “Not Active”.
On to INSULIN HUMAN, for which the IC50 entry is “Not Active” and the Ki result is listed as “Not Active”.
Take POLYVINYL ALCOHOL: the IC50 result is reported as “Not Active” and the Ki result is “Not Active”.

The next series concerns the target T2, Estrogen receptor (Homo sapiens, UniProt P03372). Further: in other assays of this panel Not Active means under 50% inhibition at 10 µM.
T2 sequence (P03372 whole entry): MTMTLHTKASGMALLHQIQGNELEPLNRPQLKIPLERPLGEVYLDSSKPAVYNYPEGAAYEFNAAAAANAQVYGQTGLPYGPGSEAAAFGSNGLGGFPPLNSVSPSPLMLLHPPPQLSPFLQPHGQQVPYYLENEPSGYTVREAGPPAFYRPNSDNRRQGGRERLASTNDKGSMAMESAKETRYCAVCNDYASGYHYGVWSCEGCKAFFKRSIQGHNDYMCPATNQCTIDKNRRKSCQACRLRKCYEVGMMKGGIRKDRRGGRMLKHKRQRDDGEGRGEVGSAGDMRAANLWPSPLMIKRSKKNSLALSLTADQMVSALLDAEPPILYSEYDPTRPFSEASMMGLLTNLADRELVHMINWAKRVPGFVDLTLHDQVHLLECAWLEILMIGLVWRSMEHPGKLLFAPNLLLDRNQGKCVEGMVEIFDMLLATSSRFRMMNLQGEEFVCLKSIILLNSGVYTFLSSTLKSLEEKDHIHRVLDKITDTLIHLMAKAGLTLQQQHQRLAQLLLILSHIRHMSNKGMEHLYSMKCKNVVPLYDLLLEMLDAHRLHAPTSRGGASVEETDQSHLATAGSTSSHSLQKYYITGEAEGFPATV
Conditions: sf9.
Regarding `C[C@]12C/C(=C/O)C(=O)C[C@@H]1CC[C@@H]1[C@@H]2CC[C@@]2(C)[C@H]1CC[C@]2(C)O` [OXYMETHOLONE], the IC50 entry is on record as “Not Active”.
On the same count and under the same terms, in the case of `CC(C)(CO)C(O)C(=O)NCCCO` (configuration not stated) [PANTHENOL] it was “Not Active”; in that of `CCCCC1C(=O)N(c2ccccc2)N(c2ccccc2)C1=O` [PHENYLBUTAZONE], “Not Active”; in that of `Cc1cccc(Nc2cc(Cl)nc(SCC(=O)O)n2)c1C` [PIRINIXIC ACID], “Not Active”.
For the compound `CC[C@H](C)C(=O)O[C@H]1C[C@H](O)C=C2C=C[C@H](C)[C@H](CC[C@@H](O)C[C@@H](O)CC(=O)O)[C@H]21` [PRAVASTATIN], the IC50 entry is “Not Active”.
Regarding COBALT(II) ACETYLACETONATE, the IC50 result was “Not Active” and the Ki result is reported as “Not Active”.
Consider INSULIN HUMAN, for which the IC50 entry is given as “Not Active” and the Ki entry was “Not Active”.
Regarding POLYVINYL ALCOHOL, the IC50 result is “Not Active” and the Ki result was “Not Active”.
